# Assays:
# human TLR7 = biological target: T1, human TLR7 (Homo sapiens, UniProt Q9NYK1); assay: HEK293-Blue-hTLR-7 cells assay (SEAP reporter, R848 stimulation); type: cell-based; details: HEK293-Blue-hTLR7 cells, R848, 20 hrs
# T1 construct: host or cells: HEK293 (HEK-Blue hTLR7)
# T1 sequence (Q9NYK1 27-1049): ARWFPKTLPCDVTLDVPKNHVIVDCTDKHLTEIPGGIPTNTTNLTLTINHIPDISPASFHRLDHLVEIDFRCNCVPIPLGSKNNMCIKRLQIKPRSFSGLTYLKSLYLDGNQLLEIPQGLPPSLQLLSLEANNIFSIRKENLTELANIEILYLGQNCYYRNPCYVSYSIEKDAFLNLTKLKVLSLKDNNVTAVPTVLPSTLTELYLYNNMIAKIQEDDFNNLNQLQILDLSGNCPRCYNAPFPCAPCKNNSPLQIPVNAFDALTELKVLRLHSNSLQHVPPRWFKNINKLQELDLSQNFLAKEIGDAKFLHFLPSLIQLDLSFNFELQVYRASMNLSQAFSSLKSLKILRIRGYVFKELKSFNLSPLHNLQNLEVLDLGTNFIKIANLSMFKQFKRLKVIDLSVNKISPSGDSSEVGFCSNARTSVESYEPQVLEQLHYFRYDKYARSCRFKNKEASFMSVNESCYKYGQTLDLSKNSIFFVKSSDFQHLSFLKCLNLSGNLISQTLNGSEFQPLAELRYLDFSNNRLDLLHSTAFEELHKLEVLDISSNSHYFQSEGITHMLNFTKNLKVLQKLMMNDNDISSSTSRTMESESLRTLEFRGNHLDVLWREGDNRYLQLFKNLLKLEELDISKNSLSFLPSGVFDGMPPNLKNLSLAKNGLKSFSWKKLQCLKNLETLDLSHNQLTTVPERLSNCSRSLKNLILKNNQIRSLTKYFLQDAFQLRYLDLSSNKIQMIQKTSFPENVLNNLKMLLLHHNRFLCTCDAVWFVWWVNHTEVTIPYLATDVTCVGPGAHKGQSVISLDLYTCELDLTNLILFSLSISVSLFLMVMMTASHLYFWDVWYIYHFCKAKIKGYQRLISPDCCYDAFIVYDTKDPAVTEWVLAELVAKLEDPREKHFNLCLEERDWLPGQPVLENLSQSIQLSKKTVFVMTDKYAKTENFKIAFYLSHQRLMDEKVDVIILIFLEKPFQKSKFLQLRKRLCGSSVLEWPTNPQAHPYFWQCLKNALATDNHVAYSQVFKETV
# Procedure: The following tests were carried out in order to determine the activity of the compounds of formula (I) in HEK293-Blue-hTLR-7/8/9 cells assay.
# HEK293-Blue-hTLR-7 Cells Assay:
# A stable HEK293-Blue-hTLR-7 cell line was purchased from InvivoGen (Cat. #: hkb-htlr7, San Diego, Calif. USA). These cells were originally designed for studying the stimulation of human TLR7 by monitoring the activation of NF-κB. A SEAP (secreted embryonic alkaline phosphatase) reporter gene was placed under the control of the IFN-β minimal promoter fused to five NF-κB and AP-1-binding sites. The SEAP was induced by activating NF-κB and AP-1 via stimulating HEK-Blue hTLR7 cells with TLR7 ligands. Therefore the reporter expression was declined by TLR7 antagonist under the stimulation of a ligand, such as R848 (Resiquimod), for incubation of 20 hrs. The cell culture supernatant SEAP reporter activity was determined using QUANTI-Blue™ kit (Cat. #: rep-qbl, Invivogen, San Diego, Calif., USA) at a wavelength of 640 nm, a detection medium that turns purple or blue in the presence of alkaline phosphatase.
# HEK293-Blue-hTLR7 cells were incubated at a density of 250,000˜450,000 cells/mL in a volume of 170 μL in a 96-well plate in Dulbecco's Modified Eagle's medium (DMEM) containing 4.5 g/L glucose, 50 U/mL penicillin, […], […], 2 mM L-glutamine, 10% (v/v) heat-inactivated fetal bovine serum with addition of 20 μL A test compound in a serial dilution in the presence of final DMSO at 1% and 10 μL of 20 uM R848 in above DMEM, perform incubation under 37° C. in a CO2 incubator for 20 hrs. Then 20 μL of the supernatant from each well was incubated with 180 μQuanti-blue substrate solution at 37° C. for 2 hrs and the absorbance was read at 620˜655 nm using a spectrophotometer. The signalling pathway that TLR7 activation leads to downstream NF-κB activation has been widely accepted, and therefore similar reporter assay was modified for evaluating TLR7 antagonist.
# LYSA solubility assay = type: physicochemical; details: 0.05 M phosphate buffer, pH 6.5, aqueous buffer, thermodynamic from solid
# Procedure: LYSA study is used to determine the aqueous solubility of tested compounds. Samples are prepared in duplicate from 10 mM DMSO stock solution. After evaporation of DMSO with a centrifugal vacuum evaporator, compounds are dissolved in a 0.05 M phosphate buffer (pH 6.5), stirred for one hr and shaken for two hrs. After one night, the solutions are filtered using a microtiter filter plate. Then the filtrate and its 1/10 dilution are analyzed by HPLC-UV. In addition, a four-point calibration curve is prepared from the 10 mM stock solutions and used for the solubility determination of the compounds. The results are in μg/mL. In case the percentage of sample measured in solution after evaporation divided by the calculated maximum of sample amount is bigger than 80%, the solubility is reported as bigger than this value.
Structure (SMILES),IC50 (human TLR7) [µM],solubility thermodynamic (LYSA solubility assay) [mg/mL]
"C[C@@H]1CN(c2ccc(C(F)(F)F)c3ncccc23)C[C@H](C(=O)N2CCC(N)CC2)O1 [Example 12, (4-amino-1-piperidyl)-[(2R,6R)-6-methyl-4-[8-(trifluoromethyl)-5-quinolyl]morpholin-2-yl]methanone]",0.15,> 0.665
"C[C@@H]1CN(c2ccc(C(F)(F)F)c3ncccc23)C[C@H](C(=O)NCCN2CCOCC2)O1 [Example 13, (2R,6R)-6-methyl-N-(2-morpholinoethyl)-4-[8-(trifluoromethyl)-5-quinolyl]morpholine-2-carboxamide]",0.29,> 0.725
"C[C@@H]1CN(c2ccc(C(F)(F)F)c3ncccc23)C[C@H](C(=O)NC2CNCCOC2)O1 (stereo partly drawn) [Example 14, (2R,6R)-6-methyl-N-(1,4-oxazepan-6-yl)-4-[8-(trifluoromethyl)-5-quinolyl]morpholine-2-carboxamide]",0.037,> 0.695
"Cc1ccc(N2C[C@@H](C)O[C@@H](C(=O)NC3CCN(C)CC3)C2)c2cccnc12 [Example 16, (2R,6R)-6-methyl-N-(1-methyl-4-piperidyl)-4-(8-methyl-5-quinolyl)morpholine-2-carboxamide]",0.074,> 0.45
"Cc1ccc(N2C[C@@H](C)O[C@@H](C(=O)NCC3CN(C)CCO3)C2)c2cccnc12 (stereo partly drawn) [Example 17, (2R,6R)-6-methyl-N-[(4-methylmorpholin-2-yl)methyl]-4-(8-methyl-5-quinolyl)morpholine-2-carboxamide]",0.14,> 0.485
"C[C@@H]1CN(c2ccc([N+](=O)[O-])c3ncccc23)C[C@H](C(=O)NCC2CN(C)CCO2)O1 (stereo partly drawn) [Example 18, (2R,6R)-6-methyl-N-[(4-methylmorpholin-2-yl)methyl]-4-(8-nitro-5-quinolyl)morpholine-2-carboxamide]",0.005,> 0.53
"C[C@@H]1CN(c2ccc([N+](=O)[O-])c3ncccc23)C[C@H](C(=O)N[C@@H]2CNC[C@@H]2F)O1 [Example 19, cis-(2R,6R)-N-[41-fluoropyrrolidin-3-yl]-6-methyl-4-(8-nitro-5-quinolyl)morpholine-2-carboxamide]",0.014,> 0.51
"C[C@@H]1CN(c2ccc([N+](=O)[O-])c3ncccc23)C[C@H](C(=O)NC2CCN(C)CC2)O1 [Example 20, (2R,6R)-6-methyl-N-(1-methyl-4-piperidyl)-4-(8-nitro-5-quinolyl)morpholine-2-carboxamide]",0.002,> 0.515
"Cc1ccc(N2C[C@@H](C)O[C@@H](C(=O)N[C@@H]3CNC[C@@H]3F)C2)c2cccnc12 [Example 21, cis-(2R,6R)-N-14-fluoropyrrolidin-3-yl1-6-methyl-4-(8-methyl-5-quinolyl)morpholine-2carboxamide]",0.071,> 0.435
"C[C@@H]1CN(c2ccc(Cl)c3ncccc23)C[C@H](C(=O)N[C@H]2CNC[C@H]2F)O1 [Example 22, (2R,6R)-4-(8-chloro-5-quinolyl)-N-[(3S,4R)-4-fluoropyrrolidin-3-yl]-6-methyl-morpholine-2-carboxamide]",0.039,> 0.455
"C[C@H]1C[C@@H](N)CN(c2ccc(Cl)c3ncccc23)C1 [Example 23, (3R,5S)-1-(8-chloro-5-quinolyl)-5-methyl-piperidin-3-amine]",0.007,> 0.315
"C[C@@H]1CN(c2ccc(Cl)c3ncccc23)C[C@H](C(=O)NC2CCN(C)CC2)O1 [Example 24, (2R,6R)-4-(8-chloro-5-quinolyI)-6-methyl-N-(1-methyl-4-piperidyl)morpholine-2-carboxamide]",0.015,> 0.475
"C[C@@H]1CN(c2ccc(Cl)c3ncccc23)C[C@H](C(=O)NC2CCCNCC2)O1 (stereo partly drawn) [Example 25, (2R,6R)-N-(azepan-4-yl)-4-(8-chloro-5-quinolyl)-6-methyl-morpholine-2-carboxamide]",0.012,> 0.47
"C[C@@H]1CN(c2ccc(Cl)c3ncccc23)C[C@H](C(=O)NCC2CN(C)CCO2)O1 (stereo partly drawn) [Example 26, (2R,6R)-4-(8-chloro-5-quinolyl)-6-methyl-N-[(4-methylmorpholin-2-yl)methyl]morpholine-2-carboxamide]",0.023,> 0.52
"C[C@@H]1CN(c2ccc(C(F)(F)F)c3ncccc23)C[C@H](C(=O)NC[C@@H]2C[C@@H](F)CN2)O1 [Example 27, (2R,6R)-N-[[(2S,4R)-4-fluoropyrrolidin-2-yl]methyl]-6-methyl-4-[8-(trifluoromethyl)-5-quinolyl]morpholine-2-carboxamide]",0.06,> 0.585
"C[C@@H]1CN(c2ccc(C(F)(F)F)c3ncccc23)C[C@H](C(=O)NC2CNCC(F)(F)C2)O1 (stereo partly drawn) [Example 28, (2R,6R)-N-(5,5-difluoro-3-piperidyl)-6-methyl-4-[8-(trifluoromethyl)-5-quinolyl]morpholine-2-carboxamide]",0.2,0.48
"C[C@@H]1CN(c2ccc(C(F)(F)F)c3ncccc23)C[C@H](C(=O)NCC2CNCC2(F)F)O1 (stereo partly drawn) [Example 29, (2R,6R)-N-[(4,4-difluoropyrrolidin-3-yl)methyl]-6-methyl-4-[8-(trifluoromethyl)-5-quinolyl]morpholine-2-carboxamide]",0.037,0.565
C[C@@H]1CN(c2ccc(C(F)(F)F)c3ncccc23)C[C@H](C(=O)NC[C@@H]2CC(F)(F)CN2)O1 [Example 30],0.37,0.375
"C[C@@H]1CN(c2ccc(C(F)(F)F)c3ncccc23)C[C@H](C(=O)NC2C3CCC2CNC3)O1 (stereo partly drawn) [Example 31, (2R,6R)-N-(3-azabicyclo[3.2.1]octan-8-yl)-6-methyl-4-[8-(trifluoromethyl)-5-quinolyl]morpholine-2-carboxamide]",0.005,> 0.597
"C[C@@H]1CN(c2ccc(C(F)(F)F)c3ncccc23)C[C@H](C(=O)N2CCC3(CCNCC3)CC2)O1 [Example 32, 3,9-diazaspiro[5.5]undecan-3-yl-[(2R,6R)-6-methyl-4-[8-(trifluoromethyl)-5-quinolyl]morpholin-2-yl]methanone]",0.078,> 0.64
"C[C@@H]1CN(c2ccc(C(F)(F)F)c3ncccc23)C[C@H](C(=O)NC2CC3COCC(C2)N3)O1 (stereo partly drawn) [Example 33, (2R,6R)-6-methyl-N-(3-oxa-9-azabicyclo[3.3.1]nonan-7-yl)-4-[8-(trifluoromethyl)-5-quinolyl]morpholine-2-carboxamide]",0.002,0.35

# Reference: patent US20220363665A1, “QUINOLINE COMPOUNDS FOR THE TREATMENT OF AUTOIMMUNE DISEASE” (Hoffmann-La Roche Inc., priority 2019, published 2022)
